Data taken from patent US9555045B2, “Use of prostaglandins F2alpha and analogues for the healing of corneal and conjunctival lesions” (SANTEN SAS, priority 2009, dated 2017).

Test system: Sprague-Dawley rats
Details: rat
Method: Brief description of the protocol: 16 male Sprague-Dawley rats weighting 100 to 125 g were randomly assigned to 4 groups (4 rats per group (Gp)): Gp1, Phosphate buffer solution (PBS); Gp2, 0.02% benzalkonium chloride (BAK); Gp3, Xalatan®; Gp4, Latanoprost Emulsion. Following general and local anesthesia with ketamine/xylazine and topical Oxybucaïne, respectively, the upper part of the right eye cornea of each rat was scraped with a surgical scalpel following an application of 50 μl of 50% ethanol solution. The upper corneal and limbal epithelia were removed (at day D0). One drop of Tobrex was instilled immediately after the scraping. 2 and 5 hours post scraping one drop of the different test articles were applied onto the cornea of the right eye. These latter instillations were repeated every day for 4 days, and corneal evaluation with an in vivo confocal microscope (IVCM-HRT) was performed on day 4 after the last instillation. At the end of the experimental procedure (the total duration of the treatment is 5 days; from day D0 to D4), the animals were sacrificed and the eyes harvested to characterize the histological organisation of the treated cornea.

benzalkonium chloride [0.02% BAK solution]
IVCM (in vivo confocal microscopy) of superficial epithelium: scar tissue / hypereflectivity: corneal edema and tissue disorganisation | Hematoxylin-eosin staining of treated cornea (epithelium thinning, edema, inflammatory infiltrates) (in vivo): edemas and inflammatory infiltrates are particularly obvious
